Assay results: patent publication US5635593A (priority 1995, dated 1997)
“Also recorded” adds a separate entry of the source. Peptide text beside a SMILES is read from it.

Assays:
BK1 receptor = target: T1, BK1 receptor (Oryctolagus cuniculus, UniProt P48748); assay: rabbit aorta in vitro, reversal of des-Arg^9 -BK contraction; design: on rabbit aorta (BK1 -receptor) in vitro; from tissue; host or cells: rabbit aorta; details: negative log of molar concentration causing 50% reversal of des-Arg^9 -BK (10^-7 M) contraction
T1 sequence (P48748 1-352): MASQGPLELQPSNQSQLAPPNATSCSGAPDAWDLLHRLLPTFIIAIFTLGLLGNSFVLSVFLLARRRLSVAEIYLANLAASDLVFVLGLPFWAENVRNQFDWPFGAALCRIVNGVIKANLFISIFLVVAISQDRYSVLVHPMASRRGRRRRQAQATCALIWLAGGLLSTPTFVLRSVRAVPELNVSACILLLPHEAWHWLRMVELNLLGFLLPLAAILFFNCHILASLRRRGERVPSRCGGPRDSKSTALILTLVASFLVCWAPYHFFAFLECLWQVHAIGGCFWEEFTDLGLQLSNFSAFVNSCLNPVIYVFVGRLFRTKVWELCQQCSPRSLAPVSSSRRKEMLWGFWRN
Description: Each antagonist was then added, in a cumulative fashion, on top of the contraction and the negative log of the molar concentration of the antagonist causing a 50% reversal (IC50) of the […] measured.

BK2 -receptor = target: T2, BK2 -receptor (Rattus norvegicus, UniProt P25023); assay: rat uterus (RU) in vitro, antagonism of BK; details: against BK
T2 construct: guinea-pig ileum (GPI), rat uterus (RU) and rabbit jugular vein (RJV); from tissue; host or cells: rat uterus
T2 sequence (P25023 1-396): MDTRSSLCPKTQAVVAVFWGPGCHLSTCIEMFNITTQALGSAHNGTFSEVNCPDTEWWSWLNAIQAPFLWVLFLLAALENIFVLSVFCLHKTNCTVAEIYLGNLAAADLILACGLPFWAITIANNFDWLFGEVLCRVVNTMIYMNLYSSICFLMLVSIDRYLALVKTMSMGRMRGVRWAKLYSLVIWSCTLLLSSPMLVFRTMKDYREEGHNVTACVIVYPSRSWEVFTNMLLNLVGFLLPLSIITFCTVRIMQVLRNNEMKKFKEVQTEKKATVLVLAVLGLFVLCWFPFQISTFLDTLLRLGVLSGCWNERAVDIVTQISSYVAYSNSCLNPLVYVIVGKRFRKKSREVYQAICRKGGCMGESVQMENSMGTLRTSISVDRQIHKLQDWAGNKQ
Description: Thus, in vitro studies were performed on standard assay systems, namely, guinea-pig ileum (GPI), rat uterus (RU) and rabbit jugular vein (RJV). […] The potency of each compound was assessed as a pA2 value according to the method of Arunlakshana & Schild, Br. J. Pharmacol. Chemother., 14:48-58 (1959). The pA2 can be defined as the negative logarithm of the molar concentration of the antagonist in the presence of which the potency of the agonist is reduced two-fold, i.e., twice the amount of agonist is required to produce a given response in the presence of, than in the absence of, the antagonist. A high potency of antagonism is indicated by a high pA2 value. i.e., a low concentration of antagonist is effective.
The percentage recovery (% Rec) was also determined for compounds with respect to each assay.
With respect to duration of activity, it is noted that after exposure to the highest concentration of antagonist, each tissue was washed extensively and then assessed for recovery from the antagonist effect.
Potency in the rat uterus assay was assessed as described above and pA2 values determined.

SMILES	BK1 rabbit aorta IC50 (BK1 receptor)	pA2 rat uterus (BK2) (BK2 -receptor)	further results
CC(C)C[C@H](NC(=O)[C@@H](Cc1ccccc1)NC(=O)[C@H](CO)NC(=O)[C@H](Cc1ccccc1)NC(=O)CNC(=O)[C@@H]1C[C@@H](O)CN1C(=O)[C@@H]1CCCN1C(=O)[C@H](CS)NC(=O)[C@H](N)CCCNC(=N)N)C(=O)O [CP-0376, D R--C--P--J--G--F--S--D F--L] (HELM PEPTIDE1{[dR].C.P.[Hyp].G.F.S.[dF].L}$$$$V2.0; N-terminus and C-terminus assumed)	4.9 ± 0.3	–	–
N=C(N)NCCC[C@@H](N)C(=O)N[C@@H](CS)C(=O)N1CCC[C@H]1C(=O)N1C[C@H](O)C[C@H]1C(=O)NCC(=O)N[C@@H](Cc1ccccc1)C(=O)N[C@@H](CO)C(=O)N1Cc2ccccc2C[C@@H]1C(=O)N1[C@H](C(=O)O)C[C@@H]2CCCC[C@@H]21 [CP-0363, D R--C--P--J--G--F--S--D Tic--Oic] (HELM PEPTIDE1{[dR].C.P.[Hyp].G.F.S.[O=C([C@H]1Cc2ccccc2CN1[*:1])[*:2]].[O=C(O)[C@@H]1C[C@@H]2CCCC[C@@H]2N1[*:1]]}$$$$V2.0; N-terminus and C-terminus assumed)	6.2 ± 0.3	–	–
CC(C)C[C@H](NC(=O)[C@@H](Cc1ccccc1)NC(=O)[C@H](CSC1CC(=O)N(CCCCN2C(=O)CC(SC[C@H](NC(=O)[C@H](Cc3ccccc3)NC(=O)CNC(=O)[C@@H]3C[C@@H](O)CN3C(=O)[C@@H]3CCCN3C(=O)[C@H](CCCNC(=N)N)NC(=O)[C@H](N)CCCNC(=N)N)C(=O)N[C@H](Cc3ccccc3)C(=O)N[C@@H](CC(C)C)C(=O)N[C@@H](CCCNC(=N)N)C(=O)O)C2=O)C1=O)NC(=O)[C@H](Cc1ccccc1)NC(=O)CNC(=O)[C@@H]1C[C@@H](O)CN1C(=O)[C@@H]1CCCN1C(=O)[C@H](CCCNC(=N)N)NC(=O)[C@H](N)CCCNC(=N)N)C(=O)N[C@@H](CCCNC(=N)N)C(=O)O (stereo partly drawn) [CP-0209] (HELM PEPTIDE1{[dR].R.P.[Hyp].G.F.C.[dF].L.R}|PEPTIDE2{[dR].R.P.[Hyp].G.F.C.[dF].L.R}|CHEM1{[O=C1CC([*:1])C(=O)N1CCCCN1C(=O)CC([*:2])C1=O]}$PEPTIDE1,CHEM1,7:R3-1:R1|PEPTIDE2,CHEM1,7:R3-1:R2$$$V2.0)	–	8.2 ± 0.2	–
CC(C)C[C@H](NC(=O)[C@@H](Cc1ccccc1)NC(=O)[C@H](CO)NC(=O)[C@H](Cc1ccccc1)NC(=O)CNC(=O)[C@@H]1C[C@@H](O)CN1C(=O)[C@@H]1CCCN1C(=O)[C@H](CCCNC(=N)N)NC(=O)[C@H](N)CCCNC(=N)N)C(=O)O [CP-0253, D R--R--P--J--G--F--S--D F--L] (HELM PEPTIDE1{[dR].R.P.[Hyp].G.F.S.[dF].L}$$$$V2.0; N-terminus and C-terminus assumed)	6.9 ± 0.1	–	–
CC(C)C[C@H](NC(=O)[C@@H](Cc1ccccc1)NC(=O)[C@H](CSC1CC(=O)N(CCN2C(=O)CC(SC[C@H](NC(=O)[C@H](Cc3ccccc3)NC(=O)CNC(=O)[C@@H]3C[C@@H](O)CN3C(=O)[C@@H]3CCCN3C(=O)[C@H](CCCNC(=N)N)NC(=O)[C@H](N)CCCNC(=N)N)C(=O)N[C@H](Cc3ccccc3)C(=O)N[C@@H](CC(C)C)C(=O)N[C@@H](CCCNC(=N)N)C(=O)O)C2=O)C1=O)NC(=O)[C@H](Cc1ccccc1)NC(=O)CNC(=O)[C@@H]1C[C@@H](O)CN1C(=O)[C@@H]1CCCN1C(=O)[C@H](CCCNC(=N)N)NC(=O)[C@H](N)CCCNC(=N)N)C(=O)N[C@@H](CCCNC(=N)N)C(=O)O (stereo partly drawn) [CP-0162] (HELM PEPTIDE1{[dR].R.P.[Hyp].G.F.C.[dF].L.R}|PEPTIDE2{[dR].R.P.[Hyp].G.F.C.[dF].L.R}|CHEM1{[O=C1CC([*:1])C(=O)N1CCN1C(=O)CC([*:2])C1=O]}$PEPTIDE1,CHEM1,7:R3-1:R1|PEPTIDE2,CHEM1,7:R3-1:R2$$$V2.0)	–	–	Kb (BK2 -receptor; read-out: pA2 rat uterus (BK2) (converted)): 3.98 nM
CC(C)C[C@H](NC(=O)[C@@H]1CCCN1C(=O)[C@H](CO)NC(=O)[C@H](Cc1ccccc1)NC(=O)CNC(=O)[C@@H]1C[C@@H](O)CN1C(=O)[C@@H]1CCCN1C(=O)[C@H](CSC1CC(=O)N(CCCCCCN2C(=O)CC(SC[C@H](NC(=O)[C@H](Cc3ccccc3)NC(=O)CNC(=O)[C@@H]3C[C@@H](O)CN3C(=O)[C@@H]3CCCN3C(=O)[C@H](CCCNC(=N)N)NC(=O)[C@H](N)CCCNC(=N)N)C(=O)N[C@H](Cc3ccccc3)C(=O)N[C@@H](CC(C)C)C(=O)N[C@@H](CCCNC(=N)N)C(=O)O)C2=O)C1=O)NC(=O)[C@@H](N)CCCCN)C(=O)O (stereo partly drawn) [CP-0382] (HELM PEPTIDE1{[dR].R.P.[Hyp].G.F.C.[dF].L.R}|PEPTIDE2{K.C.P.[Hyp].G.F.S.P.L}|CHEM1{[O=C1CC([*:1])C(=O)N1CCCCCCN1C(=O)CC([*:2])C1=O]}$PEPTIDE1,CHEM1,7:R3-1:R1|PEPTIDE2,CHEM1,2:R3-1:R2$$$V2.0; N-terminus and C-terminus assumed)	–	Agonist; also recorded: substantial partial agonism	–
CC(C)C[C@H](NC(=O)[C@@H](Cc1ccccc1)NC(=O)[C@H](CSC1CC(=O)N(CCCCCCN2C(=O)CC(SC[C@H](NC(=O)[C@@H](NC(=O)[C@@H](Cc3c[nH]c4ccccc34)NC(=O)[C@H](Cc3ccc(O)cc3)NC(=O)[C@@H](N)CC(=O)O)C(C)C)C(=O)N[C@H](Cc3c[nH]c4ccccc34)C(=O)N[C@@H](CCCNC(=N)N)C(N)=O)C2=O)C1=O)NC(=O)[C@H](Cc1ccccc1)NC(=O)CNC(=O)[C@@H]1C[C@@H](O)CN1C(=O)[C@@H]1CCCN1C(=O)[C@H](CCCNC(=N)N)NC(=O)[C@H](N)CCCNC(=N)N)C(=O)N[C@@H](CCCNC(=N)N)C(=O)O (stereo partly drawn) [CP-0415] (HELM PEPTIDE1{[dR].R.P.[Hyp].G.F.C.[dF].L.R}|PEPTIDE2{D.Y.[dW].V.C.[dW].R.[am]}|CHEM1{[O=C1CC([*:1])C(=O)N1CCCCCCN1C(=O)CC([*:2])C1=O]}$PEPTIDE1,CHEM1,7:R3-1:R1|PEPTIDE2,CHEM1,5:R3-1:R2$$$V2.0)	–	7.8 ± 0.1	–
CC(C)C[C@H](NC(=O)[C@@H](Cc1ccccc1)NC(=O)[C@H](CSC1CC(=O)N(CCCCCCN2C(=O)CC(SC[C@H](NC(=O)[C@@H](Cc3c[nH]c4ccccc34)NC(=O)[C@@H](NC(=O)[C@@H](Cc3c[nH]c4ccccc34)NC(=O)[C@H](Cc3ccc(O)cc3)NC(=O)[C@@H](N)CC(=O)O)C(C)C)C(=O)N[C@@H](CCCNC(=N)N)C(N)=O)C2=O)C1=O)NC(=O)[C@H](Cc1ccccc1)NC(=O)CNC(=O)[C@@H]1C[C@@H](O)CN1C(=O)[C@@H]1CCCN1C(=O)[C@H](CCCNC(=N)N)NC(=O)[C@H](N)CCCNC(=N)N)C(=O)N[C@@H](CCCNC(=N)N)C(=O)O (stereo partly drawn) [CP-0416] (HELM PEPTIDE1{[dR].R.P.[Hyp].G.F.C.[dF].L.R}|PEPTIDE2{D.Y.[dW].V.[dW].C.R.[am]}|CHEM1{[O=C1CC([*:1])C(=O)N1CCCCCCN1C(=O)CC([*:2])C1=O]}$PEPTIDE1,CHEM1,7:R3-1:R1|PEPTIDE2,CHEM1,6:R3-1:R2$$$V2.0)	–	8.7 ± 0.2	–
CC(C)C[C@H](NC(=O)[C@@H](Cc1ccccc1)NC(=O)[C@H](CSC1CC(=O)N(CCCCCCN2C(=O)CC(SC[C@H](NC(=O)[C@@H](Cc3c[nH]c4ccccc34)NC(=O)[C@H](Cc3ccc(O)cc3)NC(=O)[C@@H](N)CC(=O)O)C(=O)N[C@H](Cc3c[nH]c4ccccc34)C(=O)N[C@H](Cc3c[nH]c4ccccc34)C(=O)N[C@@H](CCCNC(=N)N)C(N)=O)C2=O)C1=O)NC(=O)[C@H](Cc1ccccc1)NC(=O)CNC(=O)[C@@H]1C[C@@H](O)CN1C(=O)[C@@H]1CCCN1C(=O)[C@H](CCCNC(=N)N)NC(=O)[C@H](N)CCCNC(=N)N)C(=O)N[C@@H](CCCNC(=N)N)C(=O)O (stereo partly drawn) [CP-0414] (HELM PEPTIDE1{[dR].R.P.[Hyp].G.F.C.[dF].L.R}|PEPTIDE2{D.Y.[dW].C.[dW].[dW].R.[am]}|CHEM1{[O=C1CC([*:1])C(=O)N1CCCCCCN1C(=O)CC([*:2])C1=O]}$PEPTIDE1,CHEM1,7:R3-1:R1|PEPTIDE2,CHEM1,4:R3-1:R2$$$V2.0)	–	7.8 ± 0.1	–
